{"source": "patent US7745390B2", "about": "“Antimicrobial peptides” (priority 2005, dated 2010)", "key": {"candida albicans SC5314": {"test_system": "candida albicans SC5314", "assay": "Percent survival of Candida albicans in phosphate buffer", "format": "cell-based", "design": "dose or concentration left out as unconfirmed", "conditions": "37° C., 90 min. incubation", "excerpt": "Germ tube formation is essential to Candida toxicity, so agents that prevent this (even in the absence of killing the organism) could have significant activity in vivo."}, "E. coli": {"test_system": "E. coli", "assay": "CFU assay in 10% FCS/DMEM", "format": "cell-based", "conditions": "3 hrs", "protocol": "(§1) The CFU assay is the “gold standard” for evaluating antibiotics. Briefly, bacteria are grown overnight in rich medium, such as LB, and then diluted and grown in log phase for 2-4 hours. Cultures are set up as above, with the initial culture media being 10 mM phosphate buffer/0.03% LB; DMEM or RPMI; or DMEM or RPMI plus 10% serum (fetal calf, human, or mouse). After various periods of time, but generally 3 hours or less, aliquots are removed, diluted in LB at various dilutions, and plated on LB agar plates. Plates are incubated overnight at 37° C. and counted on an automatic colony counter.\n(§2) Three preferred peptides G11.46, G12.21 and G14.15, discussed above, were further tested for antimicrobial efficacy under various conditions using the 10% FCS/DMEM assay as described under CFU assay. The incubation times with the bacteria and peptide was three hours, at which time the bacteria were diluted and plated on agar. […] The MIC for each compound is highlighted."}, "B. cereus [1]": {"test_system": "B. cereus", "assay": "CFU assay in 10% FCS/DMEM", "format": "cell-based", "conditions": "3 hrs", "protocol": "as §1, §2"}, "Staphylococcus aureus": {"test_system": "Staphylococcus aureus", "assay": "CFU assay in 10% FCS/DMEM", "format": "cell-based", "conditions": "3 hrs", "protocol": "as §1, §2"}, "Salmonella typhimurium": {"test_system": "Salmonella typhimurium", "assay": "CFU assay in 10% FCS/DMEM", "format": "cell-based", "conditions": "3 hrs", "protocol": "as §1, §2"}, "bacteria": {"test_system": "bacteria", "assay": "Activity in DMEM and RPMI media (lysis of bacteria)", "format": "cell-based", "conditions": "either 10 mM phosphate buffer or DMEM", "outline": "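Log-phase bacteria (2-4 h after overnight LB growth) exposed to peptides in DMEM or RPMI, with or without 10% fetal calf, human or mouse serum, generally 3 h or less. Viability by CFU: aliquots diluted in LB, plated on LB agar, incubated overnight at 37° C and colonies counted.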"}, "B. cereus [2]": {"test_system": "B. cereus", "format": "cell-based", "conditions": "pH 7.2", "outline": "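Peptides were diluted in 10 mM phosphate buffer, pH 7.2 with 0.03% LB and incubated with bacteria (~5×10^6 CFU/ml) for 3 h at 37 °C in microtiter wells. LB was then added, growth continued overnight, and OD 600 nm was read. MIC is the lowest concentration with no growth; IC50 gives 50% growth versus medium.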"}, "[3]": {"assay": "Degree of helicity by circular dichroism", "format": "physicochemical", "protocol": "For designing analogues of the present sequences, as taught herein, the Table also presents data on the degree of helicity of the active peptides, as measured by circular dichroism. It should be noted that a number of the active peptides listed in the figure are not alpha helices at all. At least one peptide tested was considered to be a random coil, with no detectible secondary structure evident in the circular dichroism measurement.\nThe MIC values are for E. coli in 10 mM phosphate buffer. The peptides were derived by the inventors from granulysin helix 3. […] It contains an equal number of hydrophobic and positively charged amino acids, can adapt an αhelical structure, and is very amphipathic. In contrast, the remaining 3 peptides all retain activity in DMEM even in the presence of serum. These peptides contain more positive residues than hydrophobic residues. G12.21 contains 2 proline residues, G11.46 is based on a modification of the helix three sequence (RRVSRRFMRR) (SEQ ID NO: 91) with a 5 arginine extension at the NH2 terminus, and G14.15 includes loop 2/RRVSRRFMRR (SEQ ID NO: 91)."}, "[4]": {"test_system": "antibiotic resistant bacteria obtained from clinical isolates", "assay": "Susceptibility of antibiotic resistant clinical isolates in DMEM with or without serum", "format": "cell-based", "protocol": "In addition to the data given above, the susceptibility of a panel of antibiotic resistant bacteria obtained from clinical isolates was tested. All of these are killed by the G11.46, G12.21, and G14.15 in DMEM with or without serum."}}, "note": "pIC50: −log10 of the molar value. Square brackets hold non-standard residues; d marks the D form. Peptide text beside a SMILES is read from it.", "data": [{"compound": "CSCC[C@H](NC(=O)[C@H](Cc1ccccc1)NC(=O)[C@@H](CCCNC(=N)N)NC(=O)[C@@H](CCCNC(=N)N)NC(=O)[C@H](CO)NC(=O)[C@@H](NC(=O)[C@@H](CCCNC(=N)N)NC(=O)[C@@H](CCCNC(=N)N)NC(=O)[C@@H](CCCNC(=N)N)NC(=O)[C@@H](CCCNC(=N)N)NC(=O)[C@@H](CCCNC(=N)N)NC(=O)[C@@H](CCCNC(=N)N)NC(=O)[C@H](N)CCCNC(=N)N)C(C)C)C(=O)N[C@H](CCCNC(=N)N)C(=O)N[C@H](CCCNC(=N)N)C(=O)O", "note": "[Peptide G11.46, rrrrrrrVSrrFMrr] (H-[dR][dR][dR][dR][dR][dR][dR]VS[dR][dR]FM[dR][dR]-OH; N-terminus and C-terminus assumed)", "values": [{"measurement": "activity against candida albicans SC5314", "setting": "candida albicans SC5314", "value": "active"}, {"measurement": "% Survival (CFU Assay)", "setting": "E. coli; 0.01 μM", "value": 98.89, "unit": "%"}, {"measurement": "% Survival (CFU Assay)", "setting": "E. coli; 0.02 μM", "value": 166.22, "unit": "%"}, {"measurement": "% Survival (CFU Assay)", "setting": "E. coli; 0.04 μM", "value": 132.25, "unit": "%"}, {"measurement": "% Survival (CFU Assay)", "setting": "E. coli; 0.08 μM", "value": 89.24, "unit": "%"}, {"measurement": "% Survival (CFU Assay)", "setting": "E. coli; 0.16 μM", "value": 31.77, "unit": "%"}, {"measurement": "% Survival (CFU Assay)", "setting": "E. coli; 0.32 μM", "value": 2.02, "unit": "%"}, {"measurement": "% Survival (CFU Assay)", "setting": "E. coli; 0.63 μM", "value": "<0.002", "unit": "%"}, {"measurement": "% Survival (CFU Assay)", "setting": "E. coli; 1.25 μM", "value": "<0.002", "unit": "%"}, {"measurement": "% Survival (CFU Assay)", "setting": "B. cereus [1]; 0.005 uM", "value": 103.49, "unit": "%"}, {"measurement": "% Survival (CFU Assay)", "setting": "B. cereus [1]; 0.01 uM", "value": 44.62, "unit": "%"}, {"measurement": "% Survival (CFU Assay)", "setting": "B. cereus [1]; 0.02 uM", "value": "<0.5", "unit": "%"}, {"measurement": "% Survival (CFU Assay)", "setting": "B. cereus [1]; 0.04 uM", "value": 0.02, "unit": "%"}, {"measurement": "% Survival (CFU Assay)", "setting": "B. cereus [1]; 0.08 uM", "value": 0.002, "unit": "%"}, {"measurement": "% Survival (CFU Assay)", "setting": "B. cereus [1]; 0.16 uM", "value": 0.002, "unit": "%"}, {"measurement": "% Survival (CFU Assay)", "setting": "Staphylococcus aureus; 0.005 μM", "value": 19.9, "unit": "%"}, {"measurement": "% Survival (CFU Assay)", "setting": "Staphylococcus aureus; 0.01 μM", "value": 8.04, "unit": "%"}, {"measurement": "% Survival (CFU Assay)", "setting": "Staphylococcus aureus; 0.02 μM", "value": 2.3, "unit": "%"}, {"measurement": "% Survival (CFU Assay)", "setting": "Staphylococcus aureus; 0.04 μM", "value": 0.84, "unit": "%"}, {"measurement": "% Survival (CFU Assay)", "setting": "Staphylococcus aureus; 0.08 μM", "value": 0.2, "unit": "%"}, {"measurement": "% Survival (CFU Assay)", "setting": "Staphylococcus aureus; 0.16 μM", "value": 0.02, "unit": "%"}, {"measurement": "% Survival (CFU Assay)", "setting": "Salmonella typhimurium; 0.02 μM", "value": 116.09, "unit": "%"}, {"measurement": "% Survival (CFU Assay)", "setting": "Salmonella typhimurium; 0.04 μM", "value": 126.32, "unit": "%"}, {"measurement": "% Survival (CFU Assay)", "setting": "Salmonella typhimurium; 0.08 μM", "value": 105, "unit": "%"}, {"measurement": "% Survival (CFU Assay)", "setting": "Salmonella typhimurium; 0.16 μM", "value": 71.35, "unit": "%"}, {"measurement": "% Survival (CFU Assay)", "setting": "Salmonella typhimurium; 0.32 μM", "value": 24.68, "unit": "%"}, {"measurement": "% Survival (CFU Assay)", "setting": "Salmonella typhimurium; 0.63 μM", "value": 1.45, "unit": "%"}, {"measurement": "% Survival (CFU Assay)", "setting": "Salmonella typhimurium; 1.25 μM", "value": 0.03, "unit": "%"}, {"measurement": "% Survival (CFU Assay)", "setting": "Salmonella typhimurium; 2.5 μM", "value": "<0.002", "unit": "%"}, {"measurement": "lysis of bacteria and fungi", "setting": "bacteria", "value": "lyse both gram negative bacteria and gram negative bacteria, as well as fungi"}, {"measurement": "B. cereus MIC", "setting": "B. cereus [2]", "value": 0.35, "unit": "µM"}, {"measurement": "pIC50", "setting": "B. cereus [2]", "value": 6.70}, {"measurement": "% α-helix", "setting": "[3]; Table 4", "value": 0, "unit": "%"}, {"measurement": "secondary structure", "setting": "[3]; aqueous solution or TFE where stated", "value": "random coils in aqueous solution or in TFE"}, {"measurement": "killing of antibiotic resistant clinical isolates", "setting": "[4]", "value": "killed"}]}]}
